From patent US11180509B2, “Thiazolidone spiro pyrimidine trione compound, preparation method therefor and uses thereof” (SHANGHAI INSTITUTE OF MATERIA MEDICA, CHINESE ACADEMY OF …, priority 2017, dated 2021)
≈ marks a conversion by molar mass, not a printed value. Like-named read-outs stand apart in the source and are kept apart here.

Key:
[1] = test system: S. aureus MRSA15-3 infected mice; assay: In vivo protection test, systemic infection model (ED50); set-up: species or system Kunming mice; details: Staphylococcus aureus
[2] = test system: methicillin-resistant Staphylococcus aureus or MRSA; assay: In vitro antibacterial activity, MIC by micro broth dilution; type: cell-based; details: read-out: MIC MRSA
Text: (§1) The following strains isolated in clinic were used in antibacterial activity screening in vitro: five strains of methicillin-resistant Staphylococcus aureus or MRSA, five strains of methicillin-sensitive Staphylococcus aureus or MSSA, five strains of methicillin-resistant Staphylococcus epidermidis or MRSE, five strains of methicillin-sensitive Staphylococcus epidermidis or MSSE, three strains of penicillin-resistant Streptococcus pneumoniae or PRSP, and three strains of Streptococcus pyogenes.
(§2) The above strains were clinically isolated pathogenic bacteria collected in Sichuan and Beijing in December 2015. They were identified by the collection unit via a VITEK-60 automatic microbiological identification instrument, and then re-identified by conventional methods in the laboratory. Before the experiment, each strain was purified by a single colony on an agar plate, and the cells freshly cultured at 37° C. overnight were appropriately diluted for the experiment. Quality control strain was Staphylococcus aureus ATCC25923 purchased from the Clinical Testing Center of the Ministry of Health of the People's Republic of China.
(§3) Medium: MH (Mueller-Hinton, hydrolyzed casein) broth (OXOID);
(§4) Culture condition: Incubate at 35-37° C. for 16-18 h.
(§5) The MIC value of each test sample for the tested strain was determined by micro broth dilution method recommended by Performance Standards for Antimicrobial Susceptibility Testing (Twenty-Third Informational Supplement; M02-A11, M07-A9 and M11-A8, 2013) of American Clinical and Laboratory Standards Institute (CLSI).
(§6) After diluting each test sample to different concentrations in MH broth, 100 μl of each sample solution at different concentrations was pipetted into a sterilized 96-well polystyrene plate. In the first to twelfth wells, the drug solution was added, and the final drug concentrations in each well were 64, 32, 16, 8, 4, 2, 1, 0.5, 0.25, 0.125, 0.06, and 0.03 mg/L. The well without drug and without bacteria was set as blank control well. The well with bacteria and without drug was set as a bacterial growth control well.
(§7) The test bacterial solution was adjusted with physiological saline to a bacterial suspension equivalent to 0.5 Maisson turbidity standard, and diluted 1:100 with MH broth. The drug solution was added so that the final concentration of the bacterial solution was about 10^4 CFU/ml; then 100 μl of bacterial solution was pipetted into the above wells (the total volume in each well was 200 μl). The plate was sealed and placed in a 35-37° C. incubator for 18-20 h, and then the results were determined. […] When Streptococcus pneumoniae was tested, sterile defibrillated sheep blood was added into the Colombian broth culture medium at a final concentration of 5% and cultivation was conducted in a 5% CO2 and 35-37° C. incubator for 18-20 hours.

[3] = test system: methicillin-resistant Staphylococcus epidermidis or MRSE; assay: as above; type: cell-based; details: read-out: MIC MRSE
Text: as §1, §2, §3, §4, §5, §6, §7

Streptococcus pyogenes = assay: as above; type: cell-based; details: read-out: MIC Spy
Text: as §1, §2, §3, §4, §5, §6, §7

[4] = test system: methicillin-sensitive Staphylococcus epidermidis or MSSE; assay: as above; type: cell-based; details: read-out: MIC MSSE
Text: as §1, §2, §3, §4, §5, §6, §7

[5] = test system: methicillin-sensitive Staphylococcus aureus or MSSA; assay: as above; type: cell-based; details: read-out: MIC MSSA
Text: as §1, §2, §3, §4, §5, §6, §7

[6] = test system: penicillin-resistant Streptococcus pneumoniae or PRSP; assay: as above; type: cell-based; details: read-out: MIC PRSP
Text: as §1, §2, §3, §4, §5, §6, §7

[7] = In vivo pharmacokinetics test in mice (oral); set-up: species or system CD-1 mice; details: PO 10.0 mg/kg; for AUC(0-t) / half-life / Cmax / MRT / Tmax / AUC0→t / t1/2: plasma; for AUC0→t relative to AZD0914 / Cmax relative to AZD0914: multiple of the AZD0914 value
Protocol: Healthy female CD-1 mice were randomly divided into five groups and each group comprised three mice. The tested compound was administered orally.
0.030 mL of blood was taken from the orbit of each animal each time and anticoagulated with EDTAK2. The collection time was as follows. PO group: 15 m, 30 mi, 1 h, 2 h, 4 h, 6 h, 8 h, and 24 h after administration of the test compound. The collected blood samples were placed on ice and centrifuged within 30 minutes to separate the plasma (centrifugation conditions: 5000 rpm, 10 minutes, room temperature). The samples were stored at −80° C. before analysis.

[8] = test system: Staphylococcus aureus MRSA15-3; assay: In vitro antibacterial activity against the in vivo test strain (MIC); type: cell-based; details: MRSA153
Protocol: as §5, §6
The test bacterial solution was adjusted with physiological saline to a bacterial suspension equivalent to 0.5 Maisson turbidity standard, and diluted 1:100 with MH broth. The drug solution was added so that the final concentration of the bacterial solution was about 10^4 CFU/ml; then 100 μl of bacterial solution was pipetted into the above wells (the total volume in each well was 200 μl). The plate was sealed and placed in a 35-37° C. incubator for 18-20 h, and then the results were determined. […]

[9] = In vivo pharmacokinetic test in rats (PO and IV); details: SD rats
Protocol: Nine SD rats were randomly divided into three groups and each group comprised three […].
0.100 mL of blood was taken from the orbit of each animal each time and anticoagulated with EDTAK2. The collection time was as follows. (1) PO group (10.0 mg/kg): 15 min, 30 min, 1 h, 2 h, 4 h, 6 h, 8 h, 24 h after administration of the test compound; PO group (100 mg/kg): 15 min, 30 min 1 h, 2 h, 4 h, 6 h, 8 h, 10 h, 24 h, 36 h, 48 h; (2) IV group: 5 min, 15 min, 30 min, 1 h, 2 h, 4 h, 6 h, 8 h, 24 h after administration of the test compound. The collected blood samples were placed on ice and centrifuged within 30 minutes to separate the plasma (centrifugation conditions: 5000 rpm, 10 minutes, 4° C.). The samples were stored at −80° C. before analysis.

[10] = test system: MRSA, MSSA, MRSE, MSSE, PRSP, and Spy; assay: In vitro antibacterial activity over the whole strain panel, compared with AZD0914; type: cell-based; details: against MRSA
Text: as §1, §2, §5, §6, §7

[11] = po, read-out: ED50 95% confidence limit
[12] = female, CD-1, mouse, read-out: Cmax
[13] = female, CD-1, mouse, read-out: MRT
[14] = female, CD-1, mouse, read-out: Tmax

## C[C@@H]1CN2c3c(cc4c(N5C(=O)OC[C@@H]5C)noc4c3F)CC3(C(=O)NC(=O)NC3=O)[C@H]2[C@H](C)O1 [AZD0914, reference compound]
[1]
  ED50: 11.5 mg/kg
[1]; [11]
  ED50: 7.28 to 25.8 mg/kg
[2]
  MIC: 0.06 to 1 µg/mL (≈ 0.123 to 2.05 µM)
[3]
  MIC: 0.06 to 0.25 µg/mL (≈ 0.123 to 0.513 µM)
Streptococcus pyogenes
  MIC: 0.25 to 0.5 µg/mL (≈ 0.513 to 1.03 µM)
[4]
  MIC: 0.06 to 0.25 µg/mL (≈ 0.123 to 0.513 µM)
[5]
  MIC: 0.125 to 0.25 µg/mL (≈ 0.256 to 0.513 µM)
[6]
  MIC: 0.25 to 1 µg/mL (≈ 0.513 to 2.05 µM)
[7]; female, CD-1, mouse
  AUC(0-t): 748 ± 215 ng·h/mL
  half-life: 3.41 ± 0.944 h
[7]; [12]
  Cmax: 183 ± 134 ng/mL
[7]; [13]
  MRT: 7.06 ± 2.92 h
[7]; [14]
  Tmax: 0.583 ± 0.382 h
[8]
  MIC: 0.125 µg/mL (≈ 0.256 µM)

## C[C@@H]1CN2c3c(cc4c(N5C[C@H](C)SC5=O)noc4c3F)CC3(C(=O)NC(=O)NC3=O)[C@H]2[C@H](C)O1 [Compound 2, (2R,4S,4aS)-11-fluoro-2,4-dimethyl-8-((S)-5-methyl-2-oxothiazolin-3-yl)-1,2,4,4a-tetrahydro-2′H,6H-spiro[isoxazole[4,5-g][1,4]oxazine[4,3-a]quinoline-5,5′-pyrimidine]-2′,4′,6′(1′H,3′H)-trione]
[9]; IV 10 mg/kg
  AUC0-t (IV): 89577 ± 9072 ng·h/mL
  Cl (IV): 1.82 ± 0.214 mL/min/kg
  T1/2 (IV): 4.93 ± 0.844 h
  Vdss (IV): 0.675 ± 0.0578 L/kg
[9]; PO 10 mg/kg
  % F: 52.0 ± 8.41%
  AUC0-t (PO): 46598 ± 7538 ng·h/mL
  Cmax (PO): 4430 ± 1250 ng/mL
  T1/2 (PO): 4.38 ± 1.21 h
[9]; PO 100 mg/kg
  Cmax (PO): 32069 ± 7934 ng/mL
[9]; rat, plasma, IV 10 mg/kg, read-out: MRT (IV)
  MRT: 6.22 ± 0.601 h
[9]; rat, plasma, PO 10 mg/kg
  Tmax: 5.33 ± 1.15 h
[9]; rat, plasma, PO 10 mg/kg, read-out: MRT (PO)
  MRT: 7.54 ± 0.773 h
[9]; rat, plasma, PO 100 mg/kg
  AUC(0-t): 509000 ± 65900 ng·h/mL
  Tmax: 5.33 ± 1.15 h
  bioavailability: 55.1 ± 7.1%
[9]; rat, plasma, PO 100 mg/kg, read-out: MRT (PO)
  MRT: 11.1 ± 2.11 h
[9]; rat, plasma, PO 100 mg/kg, read-out: T1/2 (PO) (converted)
  half-life: 4.19 ± 0.23 h
[1]
  ED50: 2.54 mg/kg
[1]; [11]
  ED50: 0.11 to 3.71 mg/kg
[2]
  MIC: 0.03 to 0.25 µg/mL (≈ 0.0596 to 0.497 µM)
[3]
  MIC: < 0.03 µg/mL
Streptococcus pyogenes
  MIC: < 0.03 µg/mL
[4]
  MIC: < 0.03 µg/mL
[5]
  MIC: 0.03 to 0.06 µg/mL (≈ 0.0596 to 0.119 µM)
[6]
  MIC: < 0.03 µg/mL
[7]; female, CD-1, mouse
  AUC(0-t): 24200 ± 5640 ng·h/mL
  half-life: 6.2 ± 1.4 h
[7]; [12]
  Cmax: 2580 ± 713 ng/mL
[7]; [13]
  MRT: 8.94 ± 2.15 h
[7]; [14]
  Tmax: 2.67 ± 1.15 h
[8]
  MIC: < 0.03 µg/mL

## CC[C@@H]1CN(c2noc3c(F)c4c(cc23)CC2(C(=O)NC(=O)NC2=O)[C@H]2[C@H](C)O[C@H](C)CN42)C(=O)S1 [Compound 16, (2R,4S,4aS)-8-((R)-5-ethyl-2-oxothiazol-3-yl)-11-fluoro-2,4-dimethyl-1,2,4,4a-tetrahydro-2′H,6H-spiro[isoxazole[4,5-g][1,4]oxazine[4,3-a]quinoline-5,5′-pyrimidine]-2′,4′,6′(1′H,3′H)-trione]
[10]
  in vitro antibacterial activity relative to AZD0914: about 8 times
[2]
  MIC: 0.03 to 0.06 µg/mL (≈ 0.058 to 0.116 µM)
[3]
  MIC: < 0.03 µg/mL
Streptococcus pyogenes
  MIC: < 0.03 µg/mL
[4]
  MIC: < 0.03 µg/mL
[5]
  MIC: 0.03 to 0.06 µg/mL (≈ 0.058 to 0.116 µM)
[6]
  MIC: 0.03 to 0.06 µg/mL (≈ 0.058 to 0.116 µM)
[7]
  AUC0→t relative to AZD0914: ~11 times)
  Cmax relative to AZD0914: ~13 times)
  AUC0→t: 8057 ± 1469 ng·h/mL
  Cmax: 2376 ± 411 ng/mL
  MRT: 3.45 ± 0.788 h
  Tmax: 1.17 ± 0.764 h
  t1/2: 1.59 ± 0.495 h

## C[C@@H]1CN2c3c(cc4c(N5CCSC5=O)noc4c3F)CC3(C(=O)NC(=O)NC3=O)[C@H]2[C@H](C)O1 [Compound 1, (2R,4S,4aS)-11-fluoro-2,4-dimethyl-8-(2-oxothiazolin-3-yl)-1,2,4,4a-tetrahydro-2′H,6H-spiro[isoxazole[4,5-g][1,4]oxazine[4,3-a]quinoline-5,5′-pyrimidine]-2′,4′,6′(1′H,3′H)-trione]
[10]
  in vitro antibacterial activity relative to AZD0914: about 8 times
[2]
  MIC: 0.03 to 0.06 µg/mL (≈ 0.0613 to 0.123 µM)
[3]
  MIC: < 0.03 µg/mL
Streptococcus pyogenes
  MIC: < 0.03 µg/mL
[4]
  MIC: < 0.03 µg/mL
[5]
  MIC: < 0.03 µg/mL
[6]
  MIC: < 0.03 µg/mL
[7]
  AUC0→t relative to AZD0914: ~10 times)
  Cmax relative to AZD0914: ~8 times)
  AUC0→t: 7334 ± 943 ng·h/mL
  Cmax: 1548 ± 52 ng/mL
  MRT: 3.70 ± 0.95 h
  Tmax: 1.33 ± 0.577 h
  t1/2: 2.90 ± 1.72 h
other
  melting point: 225 to 226 °C
